Columns and labels:
[1] = test system: 697 (B-Lymphoblastic Leukemia); assay: Bliss excess, mean over the matrix (fraction); higher = more synergy
Summary of the method: (§1)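 Cell lines in DMEM/F12 or RPMI with 10% FBS were plated in 1536-well plates, held 24 hours at 37°C, 5% CO2, then given two-drug dose matrices for 72 hours (DMSO typically 0.2%). Viability was read by CellTiter-Glo 2.0 luminescence and scaled as inhibition from 0 (vehicle wells) to 1 (blank wells). Combination Emax is the second-highest inhibition in the matrix; Bliss excess is observed combination effect minus expected EA + EB − EA·EB, EA and EB being single-agent effects.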

[2] = test system: CFPAC-1 (Pancreatic Carcinoma); assay: as above
Summary of the method: as §1

[3] = test system: KM-H2 (Hodgkin's Lymphoma); assay: as above
Summary of the method: as §1

[4] = test system: MDA-MB-231 (Breast Carcinoma); assay: as above
Summary of the method: as §1

CAL-78 (Chondrosarcoma) = assay: as above
Summary of the method: as §1

[5] = test system: IHH-4 (Thyroid Gland Carcinoma); assay: as above
Summary of the method: as §1

[6] = test system: G-292-Clone-A141B1 (Osteosarcoma); assay: as above
Summary of the method: as §1

ES7 (Ewing's Sarcoma) = assay: as above
Summary of the method: as §1

J82 (Bladder Carcinoma) = assay: as above
Summary of the method: as §1

RH-1 (Ewing's Sarcoma) = assay: as above
Summary of the method: as §1

[7] = test system: MDA-MB-157 (Breast Carcinoma); assay: as above
Summary of the method: as §1

DSH1 (Bladder Carcinoma) = assay: combination Emax (second highest fraction inhibited in the dose matrix, 72 h); higher = more inhibition; extreme values may be limits of the assay
Summary of the method: as §1

[8] = test system: KARPAS-1106P (B-Cell Non-Hodgkin's Lymphoma); assay: as above
Summary of the method: as §1

[9] = test system: LU-99A (Non-Small Cell Lung Carcinoma); assay: as above
Summary of the method: as §1

[10] = test system: HPAC (Pancreatic Carcinoma); assay: as above
Summary of the method: as §1

[11] = test system: SUIT-2 (Pancreatic Carcinoma); assay: as above
Summary of the method: as §1

[12] = test system: SW1783 (Low Grade Glioma); assay: as above
Summary of the method: as §1

[13] = test system: DB (B-Cell Non-Hodgkin's Lymphoma); assay: as above
Summary of the method: as §1

[14] = test system: NCI-H1299 (Non-Small Cell Lung Carcinoma); assay: as above
Summary of the method: as §1

[15] = test system: HT-29 (Colorectal Carcinoma); assay: as above
Summary of the method: as §1
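Throughout, for Bliss excess, mean over the matrix: after 72 h of two-drug dosing.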

Row | Structure (SMILES) | Bliss excess [1] | Bliss excess [2] | Bliss excess [3] | Bliss excess [4] | Bliss excess (CAL-78 (Chondrosarcoma)) | Bliss excess [5] | Bliss excess [6] | Bliss excess (ES7 (Ewing's Sarcoma)) | Bliss excess (J82 (Bladder Carcinoma)) | Bliss excess (RH-1 (Ewing's Sarcoma)) | Bliss excess [7] | combination Emax (DSH1 (Bladder Carcinoma)) | combination Emax [8] | combination Emax [9] | combination Emax [10] | combination Emax [11] | combination Emax [12] | combination Emax [13] | combination Emax [14] | combination Emax [15]
1 | CCN(CCO)CCCOc1ccc2c(Nc3cc(CC(=O)Nc4cccc(F)c4)[nH]n3)ncnc2c1 [AZD2811] + O=C(c1cc(Cc2n[nH]c(=O)c3ccccc23)ccc1F)N1CCN(C(=O)C2CC2)CC1 [Olaparib] (first compound max 1 µM, 7x7, partner max 10 µM) | 0.0165 | 0.0077 | 0.0789 | -0.0175 | 0.0006 | 0.0229 | 0.0252 | -0.0184 | -0.0207 | -0.0451 | 0.032 | 0.328 | 0.535 | 0.508 | 0.21 | 0.0755 | 0.201 | 0.604 | 0.303 | 0.182
2 | Cc1c2c(nn1C)CSCc1cc(n(C)n1)CSc1cc(c3ccccc3c1)OCCCc1c(C(=O)O)n(C)c3c-2c(Cl)ccc13 [AZD5991] + C1CN(CCC1(C(=O)N[C@@H](CCO)C2=CC=C(C=C2)Cl)N)C3=NC=NC4=C3C=CN4 [Capivasertib] (first compound max 1 µM, 7x7, partner max 3 µM) | -0.034 | 0.0021 | -0.0052 | -0.0495 | 0.0091 | 0.0037 | -0.0115 | 0.112 | -0.0046 | 0.0157 | 0.0573 | 0.927 | 0.901 | 0.297 | 0.13 | 0.149 | 0.352 | 0.987 | 0.224 | 0.236
3 | Cn1cnc2c(F)c(Nc3ccc(Br)cc3Cl)c(C(=O)NOCCO)cc21 [Selumetinib] + C[C@@H]1COCCN1C2=NC(=NC(=C2)C3(CC3)[S@](=N)(=O)C)C4=C5C=CNC5=NC=C4 [AZD6738] (first compound max 10 µM, 7x7, partner max 10 µM) | 0.0344 | -0.0112 | -0.0148 | -0.025 | -0.0911 | 0.0224 | -0.0303 | -0.0585 | 0.0262 | -0.0215 | -0.0203 | 0.761 | 0.648 | 0.569 | 0.735 | 0.386 | 0.362 | 0.274 | 0.543 | 0.862
4 | CC1(C)CCC(CN2CCN(c3ccc(C(=O)NS(=O)(=O)c4ccc(NCC5CCOCC5)c([N+](=O)[O-])c4)c(Oc4cnc5[nH]ccc5c4)c3)CC2)=C(c2ccc(Cl)cc2)C1 [Venetoclax] + C[C@@H](Nc1cc(F)cc(F)c1)c1cc(C(=O)N(C)C)cc2c(=O)cc(N3CCOCC3)oc12 [AZD8186] (first compound max 1 µM, 7x7, partner max 3 µM) | -0.0458 | 0.0034 | -0.0151 | -0.0066 | -0.0152 | 0.0138 | -0.0195 | 0.135 | -0.0213 | -0.0429 | 0.0095 | 0.282 | 0.796 | 0.234 | 0.211 | 0.0137 | 0.336 | 0.943 | 0.149 | 0.132
5 | NC1(C(=O)N[C@@H](CCO)c2ccc(Cl)cc2)CCN(c2ncnc3[nH]ccc23)CC1 [Capivasertib] + CC(=O)c1c(C)c2cnc(Nc3ccc(N4CCNCC4)cn3)nc2n(C2CCCC2)c1=O [Palbociclib] (first compound max 10 µM, 7x7, partner max 10 µM) | -0.114 | -0.0758 | 0.0484 | -0.0024 | -0.0424 | 0.0815 | 0.0166 | 0.0092 | -0.0134 | -0.0427 | 0.0439 | 0.62 | 0.761 | 0.502 | 0.589 | 0.552 | 0.407 | 0.728 | 0.465 | 0.577
6 | CCN(CCO)CCCOc1ccc2c(Nc3cc(CC(=O)Nc4cccc(F)c4)[nH]n3)ncnc2c1 [AZD2811] + C[C@@H]1COCCN1C2=NC(=NC(=C2)C3(CC3)[S@](=N)(=O)C)C4=C5C=CNC5=NC=C4 [AZD6738] (first compound max 1 µM, 7x7, partner max 10 µM) | 0.0013 | -0.0932 | -0.0249 | -0.103 | -0.0799 | -0.0583 | -0.12 | -0.0482 | -0.0259 | -0.0414 | 0.0031 | 0.673 | 0.711 | 0.659 | 0.583 | 0.575 | 0.321 | 0.726 | 0.642 | 0.829
7 | CC1(C)CCC(CN2CCN(c3ccc(C(=O)NS(=O)(=O)c4ccc(NCC5CCOCC5)c([N+](=O)[O-])c4)c(Oc4cnc5[nH]ccc5c4)c3)CC2)=C(c2ccc(Cl)cc2)C1 [Venetoclax] + C=CCn1c(=O)c2cnc(Nc3ccc(N4CCN(C)CC4)cc3)nc2n1-c1cccc(C(C)(C)O)n1 [AZD1775] (first compound max 1 µM, partner max 1 µM) | 0.0509 | -0.0185 | 0.02 | -0.0666 | -0.0817 | -0.0654 | -0.0023 | 0.119 | -0.0832 | -0.0123 | 0.0679 | 0.48 | 0.917 | 0.463 | 0.757 | 0.596 | 0.307 | 1 | 0.641 | 0.89

— the supplement of paper PMC11061612
